Tests used:
[1] = test system: PG-PS-immunized rats; assay: PG-PS induced rat model of chronic arthritis (Example 1); format: in vivo, Lewis rats
Protocol: Six-week old female Lewis rats are immunized with 15 mg/kg Streptococcal Peptidoglycan-Polysaccharide (PG-PS) administered intraperitoneally (IP). Treatments with anti-inflammatory drugs of interest are commenced two weeks later and continue for 7 days (short-term) to 21 days (long-term). Disease progression is monitored as described below (see Joint Pathology, Clinical Scoring and Bio-Imaging). Blood samples are collected once weekly and processed as described below. At the conclusion of experiments, blood, serum, and organ samples are collected and processed as described herein.
Spleen and lymph node cells are isolated by mechanical pressing of the organ through a 100 µm cell strainer (Corning) in PBS. For isolation of rat synovial infiltrates, hind limbs are freed of skin, bones, and major tendons. The remaining tissue is minced and digested with 0.16 U Liberase TM, 10 µg/mL DNase I, and 60 U hyaluronidase I in RPMI at 37° C. for 1 hour. Blood is collected into heparinized tubes and used directly for blood count determination. For immunophenotyping of blood leukocytes, blood samples are depleted from red blood cells by lysis with ACK buffer (150 mM NH4Cl, 10 mM KHCO3, 0.1 mM EDTA).
Flow cytometry staining is performed as described in Parajuli et al., Int. J. Cancer 126:896-908, 2010, which is hereby incorporated by reference in its entirety. Measurements are performed with a Cytoflex S device (Beckman Coulter) and FACS Symphony (Beckton Dickinson), enabling detection of 13 and 52 fluorescence parameters, respectively, as well as automated absolute cell count determination.
For intracellular cytokine/transcription factor staining, rat and murine T cells are re-stimulated for 4 hours with phorbol 12,13-dibutyrate (PDBu) and ionomycin (50 ng/mL and 500 ng/mL, respectively) in the presence of Golgi Stop (BD Bioscience). In sum, five multicolor antibody panels per species (rat, mouse) are established (blood leukocytes, organ leukocytes, intracellular staining for Th cell subtypes, blood reticulocytes, bone marrow erythropoiesis). Data analysis is performed using FlowJo Software.
(§1) Regular monitoring of arthritis progression in all animal models is accomplished by measuring hind limb ankle joint diameters with a Vernier’s caliper (volume = D × d^2Π/6, D and d are ankle diameters measured in perpendicular axes, D > d). In murine arthritis models, animals are additionally clinically scored with a system assessing swelling and mobility of each animal’s limb, as described in Inglis et al., Arthritis Res. Ther. 8:R113, 2007, which is hereby incorporated by reference in its entirety. Each paw of an experimental animal is assessed separately as follows: 0 - normal, 1 - slight swelling or erythrema, 2 - pronounced swelling, 3 - joint rigidity. The paw scores for each animal are summed giving a maximum of 12 points per mouse. Scoring is performed by a rater blinded to the group assignment.
A rat model of chronic arthritis (PG-PS induced) was used to assess the efficacy of the dual JAK1/2 and ACVR1 inhibitor momelotinib (MMB) in vivo. Two weeks following arthritis induction by immunization with PG-PS, rats were treated with daily oral doses of MMB (5, 10, and 25 mg/kg) or vehicle for 3 weeks.
Consecutive assessment of arthritis was performed by joint thickness measurements and paw scoring. Following 3 weeks of treatment, synovial immune cell infiltration and T cell subset differentiation were quantified by multi-color flow cytometry. Cytokine gene expression was profiled by Real-Time PCR. Anemia was assessed by determination of blood hemoglobin and serum, spleen and liver iron levels.

[2] = test system: CAIA DBA/1 mice; assay: Collagen antibody-induced arthritis (CAIA) in DBA/1 mice (Example 2); format: in vivo
Text: as §1, with “Vernier's” for “Vernier’s”, “animal's” for “animal’s”, “Inglis” left out, “8:[…],” for “8:R113,”, “[…],” for “erythrema,”, “assignment. In order to evaluate efficacy of MMB treatment in a second arthritic animal model, arthritis was induced in DBA/1 mice by intravenous injection of collagen antibody cocktail on day 0 followed by intraperitoneal injection of lipopolysaccharide (LPS) on day 3. […] Comparator controls dexamethasone (1 mg/kg) or the TNF-α inhibitor, etanercept (10 mg/kg) were administered daily by intraperitoneal injection beginning on day 0.” for “assignment.”

[3] = test system: PG-PS-immunized RA rats; assay: PG-PS rat rheumatoid arthritis (RA) model, 3 or 21 days of treatment (Example 3); format: in vivo, Lewis rats
Protocol: Female Lewis rats were immunized with 15 mg/kg Streptococcal Peptidoglycan-Polysaccharide (PG-PS) administered intraperitoneally (IP) to generate a rat model of rheumatoid arthritis. Rats were used to assess the efficacy of the dual JAK1/2 and ACVR1 inhibitor momelotinib (MMB) in vivo. Two weeks following rheumatoid arthritis induction by immunization with PG-PS, rats were treated with daily oral doses of MMB (5, 10, 25 mg/kg) or vehicle for 3 or 21 days.
Statistical significance was determined with one-way ANOVA for RA animals with Bonferroni post-hoc tests (N=5-10 per group, * p < 0.05, ** p < 0.01).
Cytokine gene expression was profiled by Real-Time PCR. For immunophenotyping of blood leukocytes and granulocyte counts were obtained. Anemia was assessed by determination of blood hemoglobin and serum, spleen and liver iron levels.

[4] = test system: CAIA BALB/C mice; assay: CAIA murine rheumatoid arthritis model in BALB/C mice (Example 4); format: in vivo; settings: for mean rear paw rheumatoid arthritis score / mean rear paw thickness / mean total animal rheumatoid arthritis score: beginning on day 6, vs vehicle, MMB 50 mg/kg daily or 30 mg/kg twice daily oral, etanercept 10 mg/kg daily IP
Protocol: BALB/C mice were immunized with 2 mg anti-collagen II antibodies administered intraperitoneally (IP) on day 0 followed by intraperitoneal injection of 100 µg of lipopolysaccharide (LPS) on day 3. Beginning at RA induction, mice were treated orally for the entirety of the study either once daily vehicle, MMB (50 mg/kg), twice daily with MMB (30 mg/kg), or daily intraperitoneally, etanercept (ETA) (10 mg/kg). Consecutive assessment of rheumatoid arthritis was performed by animal and rear paw scoring, and rear paw thickness measurements.

[5] = target: T1, Activin Receptor Type 1 (ACVR1) (Homo sapiens, UniProt Q04771); settings: background statement; cited from earlier work
T1 sequence (Q04771 21-509): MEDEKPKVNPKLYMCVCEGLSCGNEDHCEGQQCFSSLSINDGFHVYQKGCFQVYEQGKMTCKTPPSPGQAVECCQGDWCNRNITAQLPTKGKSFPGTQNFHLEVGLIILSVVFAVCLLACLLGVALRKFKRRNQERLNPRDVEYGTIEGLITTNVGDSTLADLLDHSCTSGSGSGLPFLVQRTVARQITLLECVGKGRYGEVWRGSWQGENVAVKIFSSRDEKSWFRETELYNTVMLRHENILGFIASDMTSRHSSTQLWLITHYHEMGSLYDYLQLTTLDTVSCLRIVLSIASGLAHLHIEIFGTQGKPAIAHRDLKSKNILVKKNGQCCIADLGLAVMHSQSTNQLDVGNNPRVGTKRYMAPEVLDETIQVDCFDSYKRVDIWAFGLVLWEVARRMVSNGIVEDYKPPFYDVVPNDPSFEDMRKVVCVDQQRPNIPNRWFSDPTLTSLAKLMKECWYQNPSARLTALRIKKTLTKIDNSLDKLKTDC

[6] = test system: rat model; settings: background statement; cited from earlier work
[7] = test system: myelofibrosis patients; settings: myelofibrosis patients treated with MMB; background statement; cited from earlier work
[8] = all tested doses (5, 10, 25 mg/kg), vs vehicle in PG-PS animals
[9] = beginning at the lowest tested dose (5 mg/kg)
[10] = daily oral, 3 weeks, flow cytometry
[11] = daily oral, 3 weeks, hind limb ankle joints, flow cytometry
[12] = beginning on day 5, vs vehicle, MMB 50 mg/kg daily or 30 mg/kg twice daily oral, etanercept 10 mg/kg daily IP
[13] = 21 days of treatment, compared to healthy and RA rats
[14] = 21 days of treatment, flow cytometry

Molecule: N#CCNC(=O)c1ccc(-c2ccnc(Nc3ccc(N4CCOCC4)cc3)n2)cc1 [MMB, N-(cyanomethyl)-4-(2-(4-morpholinophenylamino)pyrimidin-4-yl)benzamide]
- joint swelling ([1]; 25 mg/kg): complete remission
- splenic granulocytes (percentage of splenic CD45+ leukocytes) ([1]; 25 mg/kg for 3 weeks, flow cytometry): significant reduction
- mean sum diameter of hind limb joints ([1]; 10 and 25 mg/kg daily oral, 3 weeks, caliper on last day of treatment, vs vehicle): significant reduction
- reduction of inflammatory granulocyte infiltration in synovial tissue [1, 8]: more than 60%
- reduction of macrophage infiltration in synovial tissue [1, 8]: more than 60%
- arthritogenic Th17 cell differentiation [1, 9]: effectively decreased
- overall CD4+ T cells in the synovia [1, 9]: effectively decreased
- swelling and cartilage destruction in arthritic hind limb joints ([1]; daily oral, 3 weeks, H&E sections at 10 mg/kg): substantially inhibits
- granulocytes in synovial tissue of hind limb ankle joint pairs [1, 10]: significantly reduced
- inflammatory CD11b/c+ macrophages in synovial tissue [1, 10]: significantly reduced
- monocytes in synovial tissue [1, 10]: significantly reduced
- splenic Th1 cells [1, 10]: reduced
- splenic Th17 cells [1, 10]: significant reduction
- splenic Treg cells [1, 10]: not significantly altered
- synovial CD4+ T cells [1, 11]: significant reductions
- synovial CD8+ T cells [1, 11]: significant reductions
- CD4+ T cells in the arthritic ankle synovia ([1]; lowest dose tested, 5 mg/kg): Reduction
- RA-associated anemia ([1]; rats): substantial improvement
- circulating hepcidin levels ([1]; rats): reduced
- systemic iron ([1]; rats): mobilized
- mean rear paw thickness ([2]; 20 mg/kg daily oral, days 7 and 12, vs vehicle): reduction
- arthritis scoring versus the TNF-α inhibitor etanercept ([2]; CAIA model, DBA/1 mice): non-inferiority
- mean rear paw arthritis score [2, 12]: significant reduction
- mean rear paw thickness [2, 12]: significant reduction
- mean total arthritis score [2, 12]: significant reduction
- blood granulocyte counts ([3]; 3 days of treatment): significantly decreases
- blood leukocyte counts ([3]; 3 days of treatment): significantly decreases
- spleen and liver cytokine expression ([3]; 3 days of treatment, Real-Time PCR): significantly decreases
- cartilage damage ([3]; 21 days of treatment, H&E-stained hind limb joint sections): alleviates
- anemia [3, 13]: corrects
- hepcidin [3, 13]: decreases
- hind limb joint swelling ([3]; 21 days of treatment, figure shows 10 mg/kg): reduces
- CD4+ T cell infiltration in hind-limb synovial tissue [3, 14]: significantly reduces
- CD8+ T cell infiltration in hind-limb synovial tissue [3, 14]: significantly reduces
- differentiation of splenic Th17 cells [3, 14]: inhibits
- infiltration of macrophages in hind limb synovia [3, 14]: reduces
- infiltration of neutrophils in hind limb synovia [3, 14]: reduces
- regulatory Treg cells [3, 14]: without affecting
- splenic Th1 cells [3, 14]: without affecting
- iron availability ([3]; rat PG-PS model): improves
- rheumatoid arthritis scoring versus the TNF-α inhibitor etanercept ([4]; CAIA model, BALB/C mice): non-inferiority
- mean rear paw rheumatoid arthritis score [4]: significant reduction
- mean rear paw thickness [4]: significant reduction
- mean total animal rheumatoid arthritis score [4]: significant reduction
- anti-arthritic effectiveness compared with etanercept ([4]; murine CAIA RA model): at least equally effective
- inhibition of ACVR1 [5]: potent inhibition
- anemia [6]: correct anemia
- anemia benefit [7]: clinically reproduced

Molecule: etanercept [reference compound]
- mean rear paw arthritis score [2, 12]: significant reduction
- mean rear paw thickness [2, 12]: significant reduction
- mean total arthritis score [2, 12]: significant reduction
- mean rear paw rheumatoid arthritis score [4]: significant reduction
- mean rear paw thickness [4]: significant reduction
- mean total animal rheumatoid arthritis score [4]: significant reduction
